Laboratory results taken from patent US20040214238A1 (priority 2003, published 2004).
Several values for one entry are separate records, joined by “and”; a condition that tells them apart may be missing. Equal values may be shown once.

Key:
[1] = target: vanilloid receptor (VR1) in DRG neurons (Rattus norvegicus, UniProt O35433); test: capsaicin screening by whole cell voltage clamp at -60 mV; settings: 2 μM capsaicin, 128 responsive neurons
Experimental: Viable neurons were identified using whole cell voltage clamp recordings based on the presence of robust voltage-gated sodium and potassium currents. Neurons were then exposed to 2 μM capsaicin (Sigma). After exposure, the bath was washed and the cell allowed to recover. Capsaicin-responsive cells had to recover after wash to be included. Capsaicin-non-responsive neurons were expose at least twice to capsaicin before the cell was collected and counted as capsaicin-non-responsive. Coverslips in the study were limited to two exposures of capsaicin to avoid desensitization. 1-2 MΩ microelectrodes were filled with an internal solution consisting of 90 mM KCl, 10 mM NaCl, 5 mM MgCl2, 40 mM HEPES, 5 mM EGTA and the pH was adjusted to 7.4 with KOH. The bath solution contained 140 mM NaCl, 5 mM KCl, 2 mM CaCl2, 0.5 mM MgCl2, 10 mM HEPES, and 15 mM Dextrose. […]
Viable neurons were identified by the presence of robust voltage-gated sodium and potassium currents during brief depolarizations from a holding potential of −80 mV. […] Capsaicin-non-responsive neurons were exposed to capsaicin at least twice before the cell was harvested and counted as capsaicin-non-responsive. […] For capsaicin screening, currents were recorded using 1-2 MΩ microelectrodes filled with an internal solution consisting of 90 mM KCl, 10 mM NaCl, 5 mM MgCl2 40 mM HEPES, and 5 mM EGTA adjusted to a pH of 7.4 with KOH. […]

[2] = system: N-type calcium channel; settings: in vivo; cited from earlier work
[3] = system: N-type calcium current in neurons of the dorsal root ganglia; assay type: cell-based, rat
[4] = system: CaV1.3 L-type channels; settings: cited from earlier work

vanilloid receptor (VR1) in DRG neurons, sequence (O35433 whole entry): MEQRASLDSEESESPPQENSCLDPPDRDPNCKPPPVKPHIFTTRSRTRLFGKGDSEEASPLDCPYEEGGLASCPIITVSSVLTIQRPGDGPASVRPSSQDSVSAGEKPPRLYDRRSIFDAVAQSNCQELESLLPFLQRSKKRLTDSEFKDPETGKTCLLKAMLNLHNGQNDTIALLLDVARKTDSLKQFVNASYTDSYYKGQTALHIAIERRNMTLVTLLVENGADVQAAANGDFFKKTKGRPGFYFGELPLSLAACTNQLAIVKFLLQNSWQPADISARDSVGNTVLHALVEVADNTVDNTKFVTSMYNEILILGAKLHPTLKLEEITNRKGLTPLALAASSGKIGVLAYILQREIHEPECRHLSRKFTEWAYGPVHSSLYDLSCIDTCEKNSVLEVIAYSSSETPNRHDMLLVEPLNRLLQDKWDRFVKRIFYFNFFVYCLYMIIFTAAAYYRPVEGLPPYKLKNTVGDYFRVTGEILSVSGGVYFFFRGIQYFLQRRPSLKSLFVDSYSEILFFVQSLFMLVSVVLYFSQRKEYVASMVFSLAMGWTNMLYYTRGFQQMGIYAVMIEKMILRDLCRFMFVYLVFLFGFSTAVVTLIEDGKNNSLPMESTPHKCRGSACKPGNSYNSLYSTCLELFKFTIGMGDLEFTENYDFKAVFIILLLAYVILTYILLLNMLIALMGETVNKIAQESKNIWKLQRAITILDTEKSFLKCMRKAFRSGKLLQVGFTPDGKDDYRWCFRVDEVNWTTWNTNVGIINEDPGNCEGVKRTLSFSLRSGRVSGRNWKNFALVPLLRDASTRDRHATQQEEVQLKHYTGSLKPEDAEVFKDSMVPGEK

With `COc1cc(CNC(=O)CCCC/C=C/C(C)C)ccc1O` [capsaicin] the “average amplitude of capsaicin-induced inward current” value [1] was 986±118 pA.

For `CSCC[C@@H]1NC(=O)[C@H](CC(C)C)NC(=O)[C@H](CCCNC(=N)N)NC(=O)[C@H](CO)NC(=O)[C@@H]2CSSC[C@@H]3NC(=O)[C@H](CO)NC(=O)CNC(=O)[C@H]([C@@H](C)O)NC(=O)[C@H](CSSC[C@H](N)C(=O)N[C@@H](CCCCN)C(=O)NCC(=O)N[C@@H](CCCCN)C(=O)NCC(=O)N[C@@H](C)C(=O)N[C@@H](CCCCN)C(=O)N2)NC(=O)[C@H](CSSC[C@@H](C(N)=O)NC(=O)[C@H](CCCCN)NC(=O)CNC(=O)[C@H](CO)NC(=O)[C@H](CCCNC(=N)N)NC3=O)NC(=O)[C@H](CC(=O)O)NC(=O)[C@H](Cc2ccc(O)cc2)NC1=O` [MVIIA], the analgesic activity [2] is listed as “powerful analgesic” and the “side effects as analgesic” value [2] is listed as “undesirable side effects”.

In the case of “ω-conotoxin GVIA (CKSPGSSCSPTSYNCCRSCNPYTKRCY) [ω-Ctx GVIA]”, the “ω-Ctx GVIA-sensitive current as % of the total whole cell calcium current” value [3] is given as 71±2% and 68±2%, the “ω-Ctx GVIA-sensitive, N-type current as component of the total Ca current” value [3] is given as about 70% and the “effect on CaV1.3 L-type current” value [4] is given as “inhibited by high concentrations”. For the same molecule, the “effect on neuronal CaV1.3 L-type channels” value [4] was “not ω-Ctx GVIA-sensitive”.
